Source: patent US20230227427A1, “IL-17A MODULATORS” (SANOFI, priority 2010, published 2023)

target: T1, human recombinant IL-17A (Homo sapiens, UniProt Q16552); experiment: IL-17A AlphaLISA assay (block binding of IL-17A to its receptor IL-17RA); details: compounds pre-incubated with the IL-17A for 30 min (indicated by * in Table A); read-out: AlphaLISA pIC50 (converted)
T1 construct: purchased R&D Systems 7955-IL/CF
T1 sequence (Q16552 24-155): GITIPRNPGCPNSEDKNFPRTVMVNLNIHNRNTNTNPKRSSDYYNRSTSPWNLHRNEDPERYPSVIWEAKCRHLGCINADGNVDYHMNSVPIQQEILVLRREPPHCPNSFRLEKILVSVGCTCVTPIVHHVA
Method: The ability of the compounds to block binding of IL-17A to its receptor, IL-17RA, was analysed in a competition assay using AlphaLISA technology (Perkin Elmer). The assay is a bead based AlphaLISA where the IL-17RA is captured on the acceptor bead via an Fc tag and IL-17A is captured on the streptavidin donor bead via a biotinylated anti-IL17A antibody.
Assay buffer was prepared by adding 0.05% Tween-20 (v/v) and 0.1% BSA to Phosphate Buffered Saline (PBS). The assay was carried out in 384-well white low volume plates (Corning 4512). 10 µL of a 7.5 nM stock of human recombinant IL-17A (R&D Systems 7955-IL/CF) diluted in assay buffer was dispensed into the assay plate and compounds or DMSO vehicle control were added in a volume of 75 nL using a D300 dispenser (Hewlett Packard). The compounds were pre-incubated with the IL-17A for 24 h at room temperature (or for 30 min, where indicated by * in Table A below) prior to addition of 5 μL of a 5 nM stock of human recombinant IL-17RA/Fc chimera (R&D Systems 177-IR-100) diluted in assay buffer. The IL-17A was incubated with the receptor for a further 90 minutes at room temperature before addition of 5 μL of a mixture of anti-human Fc IgG acceptor beads (75 μg/mL, Perkin Elmer AL103C) and anti-IL-17A biotin conjugated antibody (5 nM, Enzo Life Sciences, ENZ-ABS278-0100) in assay buffer. After a further 30 min incubation at room temperature, 5 μL of streptavidin donor beads ([…], Perkin Elmer 6760002S) were added and the plate was incubated for 3 h in the dark.
The luminescence signal was measured using an Enspire plate reader (Perkin Elmer) with excitation at 680 nm and emission at 615 nm. Data were analysed using GraphPad Prism and fitted to a 4-parameter logistic equation. The IC50 values were calculated using the DMSO vehicle as the negative control and a high concentration (6 μM) of a reference IL-17A inhibitor as the positive control.
Activity of the Example compounds is reported as a PIC50 value in Table A.

| SMILES | IC50 |
| --- | --- |
| Cc1nonc1C(=O)N[C@H](C(=O)Nc1ccc(-c2c(C)noc2C)cn1)C1CCCCCC1 [Example 128, (S)—N-(1-Cycloheptyl-2-((5-(3,5-dimethylisoxazol-4-yl)pyridin-2-yl)amino)-2-oxoethyl)-4-methyl-1,2,5-oxadiazole-3-carboxamide] | 251 nM |
| Cc1cnn(C)c1-c1ccc(NC(=O)[C@@H](NC(=O)c2conc2C)[C@H]2CC[C@H](C)CC2)nc1 [Example 131, N—((S)-2-((5-(1,4-Dimethyl-1H-pyrazol-5-yl)pyridin-2-yl)amino)-1-((1r,4S)-4-methylcyclohexyl)-2-oxoethyl)-3-methylisoxazole-4-carboxamide] | 63.1 nM |
| CCc1nocc1C(=O)N[C@H](C(=O)Nc1ccc(-c2c(CO)cnn2C)cn1)C1CCCCCC1 [Example 202, (S)—N-(1-cycloheptyl-2-((5-(4-(hydroxymethyl)-1-methyl-1H-pyrazol-5-yl)pyridin-2-yl)amino)-2-oxoethyl)-3-ethylisoxazole-4-carboxamide] | 158 nM |
| CCn1nccc1C(=O)N[C@H](C(=O)Nc1ccc(-c2c(CO)cnn2C)cn1)[C@H]1CC[C@H](C)CC1 [Example 205, 1-ethyl-N—((S)-2-((5-(4-(hydroxymethyl)-1-methyl-1H-pyrazol-5-yl)pyridin-2-yl)amino)-1-((1r,4S)-4-methylcyclohexyl)-2-oxoethyl)-1H-pyrazole-5-carboxamide] | 251 nM |
| CCc1nocc1C(=O)N[C@H](C(=O)Nc1ccc(-c2c(Cl)cnn2C)cn1)[C@H]1CC[C@H](C)CC1 [Example 201, N—((S)-2-((5-(4-chloro-1-methyl-1H-pyrazol-5-yl)pyridin-2-yl)amino)-1-((1r,4S)-4-methylcyclohexyl)-2-oxoethyl)-3-ethylisoxazole-4-carboxamide] | 79.4 nM |
| Cc1noc(C)c1-c1ncc(NC(=O)[C@@H](NC(=O)c2ccnn2C)[C@H]2CC[C@H](C)CC2)cn1 [Example 135, N—((S)-2-((2-(3,5-dimethylisoxazol-4-yl)pyrimidin-5-yl)amino)-1-((1r,4S)-4-methylcyclohexyl)-2-oxoethyl)-1-methyl-1H-pyrazole-5-carboxamide] | 398 nM |
| Cc1cncc(C)c1-c1ccc(NC(=O)[C@@H](NC(=O)c2ccnn2C)C2CCC(F)(F)CC2)cc1 (single isomer, unassigned) [Example 98] | 251 nM |
| Cc1nocc1C(=O)N[C@H](C(=O)Nc1ccc(-c2c(C)noc2C)cn1)C1CCCCC1 [Example 121, (S)—N-(1-Cyclohexyl-2-((5-(3,5-dimethylisoxazol-4-yl)pyridin-2-yl)amino)-2-oxoethyl)-3-methylisoxazole-4-carboxamide] | 251 nM |
| CCn1nccc1C(=O)N[C@H](C(=O)Nc1ccc(-c2c(C)noc2C)cn1)C1CCCCC1 [Example 118, (S)—N-(1-Cyclohexyl-2-((5-(3,5-dimethylisoxazol-4-yl)pyridin-2-yl)amino)-2-oxoethyl)-1-ethyl-1H-pyrazole-5-carboxamide] | 158 nM |
| Cc1cnn(C)c1-c1ccc(NC(=O)[C@@H](NC(=O)c2cnnn2C)C2CCCCCC2)nc1 [Example 133, (S)—N-(1-Cycloheptyl-2-((5-(1,4-dimethyl-1H-pyrazol-5-yl)pyridin-2-yl)amino)-2-oxoethyl)-1-methyl-1H-1,2,3-triazole-5-carboxamide] | 251 nM |

same assay, conditions: compounds pre-incubated with the IL-17A for 24 h at room temperature; read-out: AlphaLISA pIC50 (converted)

| SMILES | IC50 |
| --- | --- |
| Cn1nccc1C(=O)N[C@H](C(=O)Nc1ccc(-c2cc[n+]([O-])cc2CC(=O)N2CCCC2)cc1)C(c1ccccc1)c1ccccc1 [Example 79, (S)-4-(4-(2-(1-methyl-1H-pyrazole-5-carboxamido)-3,3-diphenylpropanamido)phenyl)-3-(2-oxo-2-(pyrrolidin-1-yl)ethyl)pyridine 1-oxide] | 251 nM |
| Cc1cc(-c2ccc(NC(=O)[C@@H](NC(=O)c3ccnn3C)C(c3ccccc3)c3ccccc3)cc2)c(C)cn1 [Example 38, (S)—N-(1-((4-(2,5-dimethylpyridin-4-yl)phenyl)amino)-1-oxo-3,3-diphenylpropan-2-yl)-1-methyl-1H-pyrazole-5-carboxamide] | 100 nM |
| Cn1nccc1C(=O)N[C@H](C(=O)Nc1ccc(-c2cn[nH]c(=O)c2)c(F)c1)C(c1ccccc1)c1ccccc1 [Example 70, (S)—N-(1-((3-fluoro-4-(6-oxo-1,6-dihydropyridazin-4-yl)phenyl)amino)-1-oxo-3,3-diphenylpropan-2-yl)-1-methyl-1H-pyrazole-5-carboxamide] | 316 nM |
| COc1ncc(-c2ccc(NC(=O)[C@@H](NC(=O)c3ccnn3C)C(c3ccccc3)c3ccccc3)cc2)c2cc[nH]c12 [Example 76, (S)—N-(1-((4-(7-methoxy-1H-pyrrolo[2,3-c]pyridin-4-yl)phenyl)amino)-1-oxo-3,3-diphenylpropan-2-yl)-1-methyl-1H-pyrazole-5-carboxamide] | 631 nM |
| Cn1nccc1C(=O)N[C@H](C(=O)Nc1ccc(-c2cc(=O)[nH]cn2)c(F)c1)C(c1ccccc1)c1ccccc1 [Example 80, (S)—N-(1-((3-fluoro-4-(6-oxo-1,6-dihydropyrimidin-4-yl)phenyl)amino)-1-oxo-3,3-diphenylpropan-2-yl)-1-methyl-1H-pyrazole-5-carboxamide] | 316 nM |
| Cn1nccc1C(=O)N[C@H](C(=O)Nc1ccc(-c2ccnc3c2CCC3)cc1)C(c1ccccc1)c1ccccc1 [Example 44, (S)—N-(1-((4-(6,7-dihydro-5H-cyclopenta[b]pyridin-4-yl)phenyl)amino)-1-oxo-3,3-diphenylpropan-2-yl)-1-methyl-1H-pyrazole-5-carboxamide] | 251 nM |
| Cc1nn(Cc2ccccc2)c(C)c1-c1ccc(NC(=O)[C@@H](NC(=O)c2ccnn2C)C(c2ccccc2)c2ccccc2)cc1 [Example 31, (S)—N-(1-((4-(1-benzyl-3,5-dimethyl-1H-pyrazol-4-yl)phenyl)amino)-1-oxo-3,3-diphenylpropan-2-yl)-1-methyl-1H-pyrazole-5-carboxamide] | 631 nM |
| COc1cnccc1-c1ccc(NC(=O)[C@@H](NC(=O)c2ccnn2C)C(c2ccccc2)c2ccccc2)c(F)c1 [Example 23, (S)—N-(1-((2-fluoro-4-(3-methoxypyridin-4-yl)phenyl)amino)-1-oxo-3,3-diphenylpropan-2-yl)-1-methyl-1H-pyrazole-5-carboxamide] | 39.8 nM |
| Cn1nccc1C(=O)N[C@H](C(=O)Nc1ccc(-c2ccncc2Cl)cc1)C(c1ccccc1)c1ccccc1 [Example 2, (S)—N-(1-((4-(3-chloropyridin-4-yl)phenyl)amino)-1-oxo-3,3-diphenylpropan-2-yl)-1-methyl-1H-pyrazole-5-carboxamide] | 31.6 nM |
| Cc1nccc(-c2ccc(NC(=O)[C@@H](NC(=O)c3ccnn3C)C(c3ccccc3)c3ccccc3)cc2F)c1C [Example 57, (S)—N-(1-((4-(2,3-dimethylpyridin-4-yl)-3-fluorophenyl)amino)-1-oxo-3,3-diphenylpropan-2-yl)-1-methyl-1H-pyrazole-5-carboxamide] | 126 nM |
| CCn1nccc1C(=O)N[C@H](C(=O)Nc1ccc(-c2cn[nH]c(=O)c2)c(F)c1)C(c1ccccc1)c1ccccc1 [Example 67, (S)-1-ethyl-N-(1-((3-fluoro-4-(6-oxo-1,6-dihydropyridazin-4-yl)phenyl)amino)-1-oxo-3,3-diphenylpropan-2-yl)-1H-pyrazole-5-carboxamide] | 398 nM |
| Cc1c(-c2ccc(NC(=O)[C@@H](NC(=O)c3ccnn3C)C(c3ccccc3)c3ccccc3)nc2)ccc(=O)n1C [Example 72, (S)—N-(1-((1′,2′-dimethyl-6′-oxo-1′,6′-dihydro-[3,3′-bipyridin]-6-yl)amino)-1-oxo-3,3-diphenylpropan-2-yl)-1-methyl-1H-pyrazole-5-carboxamide] | 79.4 nM |
| Cn1nccc1C(=O)N[C@H](C(=O)Nc1ccc(-c2ccc(=O)[nH]c2)cc1)C(c1ccccc1)c1ccccc1 [Example 49, (S)-1-methyl-N-(1-oxo-1-((4-(6-oxo-1,6-dihydropyridin-3-yl)phenyl)amino)-3,3-diphenylpropan-2-yl)-1H-pyrazole-5-carboxamide] | 100 nM |
| Cc1n[nH]c(C)c1-c1ccc(NC(=O)[C@@H](NC(=O)c2ccnn2C)C(c2ccccc2)c2ccccc2)cc1 [Example 32, (S)—N-(1-((4-(3,5-dimethyl-1H-pyrazol-4-yl)phenyl)amino)-1-oxo-3,3-diphenylpropan-2-yl)-1-methyl-1H-pyrazole-5-carboxamide] | 12.6 nM |
